Data: US20240299385A1 (ReWind Therapeutics NV, priority 2021, published 2024)

These molecules were tested against T1, human GPR17 receptor (Homo sapiens, UniProt Q13304) (assay: Calcium mobilization functional assay (Fluo-8, FLIPR TETRA) in HEK-293 hGPR17 (Gα-q assay)). Settings: antagonism of MDL29,951 (~EC80) induced Ca2+ signal; cell line (HEK-293 hGPR17 or HEK-293 Suchi5 hGPR17) not given.
T1 construct: host or cells: HEK-293
Assay type: cell-based
In short: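 Fluo-8-loaded HEK-293 hGPR17 cells (60 min dye loading, room temperature) were preincubated with compound for twenty minutes, then challenged with agonist MDL29,951 at ~EC80, 500 nM. Intracellular calcium release via Gα-q was recorded as FLIPR fluorescence for a further 2 minutes; compounds tested in duplicate.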

T1 sequence (Q13304 whole entry): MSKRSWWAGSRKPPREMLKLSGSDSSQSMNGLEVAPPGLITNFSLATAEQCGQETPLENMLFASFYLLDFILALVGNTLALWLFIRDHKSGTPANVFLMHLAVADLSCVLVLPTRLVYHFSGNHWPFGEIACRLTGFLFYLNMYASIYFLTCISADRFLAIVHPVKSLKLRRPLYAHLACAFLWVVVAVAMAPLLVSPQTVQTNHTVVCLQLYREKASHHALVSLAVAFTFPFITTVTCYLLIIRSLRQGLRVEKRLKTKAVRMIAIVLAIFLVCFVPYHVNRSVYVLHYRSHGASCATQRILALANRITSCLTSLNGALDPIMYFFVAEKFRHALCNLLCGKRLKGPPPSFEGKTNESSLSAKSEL

SMILES | IC50 [µM]
N#CCc1ccc(NS(=O)(=O)c2c[nH]c(-c3ccccc3F)c2)c(F)c1 [Cpd 053, N-[4-(cyanomethyl)-2-fluoro-phenyl]-5-(2-fluorophenyl)-1H-pyrrole-3-sulfonamide] | 0.5 to 5
CC(c1ccccn1)c1cc(S(=O)(=O)Nc2ccc(C#N)cc2F)c[nH]1 (stereo not drawn) | 5 to 50
O=S(=O)(Nc1cc(F)c(Br)cc1F)c1c[nH]c(-c2ccccc2)c1 [Cpd 003, N-(4-bromo-2,5-difluoro-phenyl)-5-phenyl-1H-pyrrole-3-sulfonamide] | < 0.5
N#Cc1cc(F)c(NS(=O)(=O)c2c[nH]c(-c3ccccc3)c2)c(F)c1 [Cpd 064, N-(4-cyano-2,6-difluoro-phenyl)-5-phenyl-1H-pyrrole-3-sulfonamide] | 0.5 to 5
N#CCOc1cc(F)c(NS(=O)(=O)c2c[nH]c(C3CCC3)c2)cc1F [Cpd 578, N-[4-(cyanomethoxy)-2,5-difluorophenyl]-5-cyclobutyl-1H-pyrrole-3-sulfonamide] | < 0.5
O=S(=O)(Nc1cc(F)c(C(F)(F)F)cc1F)c1c[nH]c(-c2ccc(Cl)cc2)c1 [Cpd 297, 5-(4-chlorophenyl)-N-[2,5-difluoro-4-(trifluoromethyl)phenyl]-1H-pyrrole-3-sulfonamide] | 5 to 50
N#Cc1cc(F)c(NS(=O)(=O)c2c[nH]c(-c3ccc(F)cc3)c2)cc1F [Cpd 509, N-(4-cyano-2,5-difluorophenyl)-5-(4-fluorophenyl)-1H-pyrrole-3-sulfonamide] | < 0.5
N#Cc1ccc(NS(=O)(=O)c2c[nH]cc2Cc2cccc(OC3CC3)c2)c(F)c1 [Cpd 340, N-(4-cyano-2-fluoro-phenyl)-4-[[3-(cyclopropoxy)phenyl]methyl]-1H-pyrrole-3-sulfonamide] | 0.5 to 5
O=C1C=C(c2cc(S(=O)(=O)Nc3cc(F)c(C(F)(F)F)cc3F)c[nH]2)CC1 [Cpd 505, N-(2,5-difluoro-4-(trifluoromethyl)phenyl)-5-(3-oxocyclopent-1-en-1-yl)-1H-pyrrole-3-sulfonamide] | 5 to 50
N#Cc1ccc(NS(=O)(=O)c2cc(-c3ccccc3)[nH]c2F)c(F)c1 [Cpd 020, N-(4-cyano-2-fluorophenyl)-2-fluoro-5-phenyl-1H-pyrrole-3-sulfonamide] | 0.5 to 5
N#Cc1ccc(NS(=O)(=O)c2c[nH]c(-c3cc(CO)ccc3F)c2)c(F)c1 [Cpd 108, N-(4-cyano-2-fluoro-phenyl)-5-[2-fluoro-5-(hydroxymethyl)phenyl]-1H-pyrrole-3-sulfonamide] | 0.5 to 5
O=S(=O)(Nc1cc(F)c(F)cc1F)c1c[nH]c(-c2c(F)cccc2F)c1 [Cpd 131, 5-(2,6-difluorophenyl)-N-(2,4,5-trifluorophenyl)-1H-pyrrole-3-sulfonamide] | 0.5 to 5
O=S(=O)(Nc1cc(F)c(C(F)(F)F)cc1F)c1c[nH]c(-c2cccnn2)c1 [Cpd 619, N-[2,5-difluoro-4-(trifluoromethyl)phenyl]-5-pyridazin-3-yl-1H-pyrrole-3-sulfonamide] | < 0.5
Cc1ccc(-c2c[nH]cc2S(=O)(=O)Nc2ccc(C#N)cc2F)cc1 [Cpd 219, N-(4-cyano-2-fluoro-phenyl)-4-(p-tolyl)-1H-pyrrole-3-sulfonamide] | 0.5 to 5
CC(=O)c1cccc(Cc2c[nH]cc2S(=O)(=O)Nc2ccc(C#N)cc2F)c1 [Cpd 490, 4-[(3-acetylphenyl)methyl]-N-(4-cyano-2-fluorophenyl)-1H-pyrrole-3-sulfonamide] | 5 to 50
O=S(=O)(Nc1cc(F)c(C(F)(F)F)cc1F)c1c[nH]c(-c2cc(Cl)ccn2)c1 [Cpd 214, 5-(4-chloro-2-pyridyl)-N-[2,5-difluoro-4-(trifluoromethyl)phenyl]-1H-pyrrole-3-sulfonamide] | 0.5 to 5
O=S(=O)(Nc1cc(F)c(OC(F)F)cc1F)c1c[nH]c(-c2ncns2)c1 [Cpd 613, N-[4-(difluoromethoxy)-2,5-difluorophenyl]-5-(1,2,4-thiadiazol-5-yl)-1H-pyrrole-3-sulfonamide] | 0.5 to 5
O=S(=O)(Nc1nc(F)c(OCCF)cc1F)c1c[nH]c(-c2ccccc2)c1 [Cpd 494, N-[3,6-difluoro-5-(2-fluoroethoxy)pyridin-2-yl]-5-phenyl-1H-pyrrole-3-sulfonamide] | < 0.5
Cc1csc(-c2cc(S(=O)(=O)Nc3cc(F)c(OC(F)F)cc3F)c[nH]2)c1 [Cpd 659, N-[4-(difluoromethoxy)-2,5-difluorophenyl]-5-(4-methylthiophen-2-yl)-1H-pyrrole-3-sulfonamide] | < 0.5
N#Cc1ccc(NS(=O)(=O)c2c[nH]cc2Cc2ccccc2C(F)(F)F)c(F)c1 [Cpd 386, N-(4-cyano-2-fluorophenyl)-4-[[2-(trifluoromethyl)phenyl]methyl]-1H-pyrrole-3-sulfonamide] | 5 to 50
O=S(=O)(Nc1ccccc1F)c1c[nH]cc1Cc1ccccc1 [Cpd 163, 4-benzyl-N-(2-fluorophenyl)-1H-pyrrole-3-sulfonamide] | 5 to 50

SMILES | IC50 [µM]
COc1cc(F)cc(Cc2c[nH]cc2S(=O)(=O)Nc2ccc(C#N)cc2F)c1 [Cpd 547, N-(4-cyano-2-fluorophenyl)-4-[(3-fluoro-5-methoxyphenyl)methyl]-1H-pyrrole-3-sulfonamide] | 0.5 to 5
Cc1cc(Cl)ccc1-c1cc(S(=O)(=O)Nc2ccc(C#N)cc2F)c[nH]1 [Cpd 262, 5-(4-chloro-2-methyl-phenyl)-N-(4-cyano-2-fluoro-phenyl)-1H-pyrrole-3-sulfonamide] | 0.5 to 5
COc1ccc(NS(=O)(=O)c2c[nH]c(-c3ccccc3)c2)c(F)c1 [Cpd 032, N-(2-fluoro-4-methoxy-phenyl)-5-phenyl-1H-pyrrole-3-sulfonamide] | 5 to 50
Cc1cnc(-c2cc(S(=O)(=O)Nc3cc(F)c(C(F)(F)F)cc3F)c[nH]2)s1 [Cpd 606, N-[2,5-difluoro-4-(trifluoromethyl)phenyl]-5-(5-methyl-1,3-thiazol-2-yl)-1H-pyrrole-3-sulfonamide] | 0.5 to 5
N#Cc1cccc(-c2cc(S(=O)(=O)Nc3cc(F)c(C(F)(F)F)cc3F)c[nH]2)c1 [Cpd 318, 5-(3-cyanophenyl)-N-[2,5-difluoro-4-(trifluoromethyl)phenyl]-1H-pyrrole-3-sulfonamide] | < 0.5
O=S(=O)(Nc1cc(F)c(Br)cc1F)c1c[nH]c(-c2ccsc2)c1 [Cpd 479, N-(4-bromo-2,5-difluorophenyl)-5-thiophen-3-yl-1H-pyrrole-3-sulfonamide] | < 0.5
Cc1cc(NS(=O)(=O)c2c[nH]c(-c3ccc(F)cc3F)c2)c(F)cc1C#N [Cpd 514, N-(4-cyano-2-fluoro-5-methylphenyl)-5-(2,4-difluorophenyl)-1H-pyrrole-3-sulfonamide] | 0.5 to 5
N#Cc1ccc(NS(=O)(=O)c2c[nH]cc2Cc2cccc(Cl)c2)c(F)c1 [Cpd 206, 4-[(3-chlorophenyl)methyl]-N-(4-cyano-2-fluoro-phenyl)-1H-pyrrole-3-sulfonamide] | < 0.5
N#Cc1ccc(NS(=O)(=O)c2c[nH]c(-c3nccc4ccccc34)c2)c(F)c1 [Cpd 396, N-(4-cyano-2-fluorophenyl)-5-isoquinolin-1-yl-1H-pyrrole-3-sulfonamide] | < 0.5
O=S(=O)(Nc1cc(F)c(C(F)(F)F)cc1F)c1c[nH]cc1Cc1cccc(OC(F)F)c1 [Cpd 558, 4-[[3-(difluoromethoxy)phenyl]methyl]-N-[2,5-difluoro-4-(trifluoromethyl)phenyl]-1H-pyrrole-3-sulfonamide] | 0.5 to 5
O=S(=O)(Nc1cc(F)c(C(F)(F)F)cc1F)c1c[nH]c(C2CCC(F)(F)C2)c1 (stereo not drawn) [Cpd 621, 5-(3,3-difluorocyclopentyl)-N-[2,5-difluoro-4-(trifluoromethyl)phenyl]-1H-pyrrole-3-sulfonamide] | 0.5 to 5
N#Cc1cc(F)c(NS(=O)(=O)c2c[nH]cc2Cc2cccs2)cc1F [Cpd 416, N-(4-cyano-2,5-difluorophenyl)-4-(thiophen-2-ylmethyl)-1H-pyrrole-3-sulfonamide] | < 0.5
COCc1ccccc1-c1cc(S(=O)(=O)Nc2ccc(C#N)cc2F)c[nH]1 [Cpd 080, N-(4-cyano-2-fluoro-phenyl)-5-[2-(methoxymethyl)phenyl]-1H-pyrrole-3-sulfonamide] | 0.5 to 5
N#Cc1ccc(NS(=O)(=O)c2c[nH]c(-c3ccccc3F)c2)cc1F [Cpd 072, N-(4-cyano-3-fluoro-phenyl)-5-(2-fluorophenyl)-1H-pyrrole-3-sulfonamide] | < 0.5
N#Cc1ccc(NS(=O)(=O)c2c[nH]cc2Cc2ccccc2)cc1 [Cpd 162, 4-benzyl-N-(4-cyanophenyl)-1H-pyrrole-3-sulfonamide] | 0.5 to 5
O=S(=O)(Nc1cccc2c1OCO2)c1c[nH]c(-c2ccccn2)c1 [Cpd 149, N-(1,3-benzodioxol-4-yl)-5-(2-pyridyl)-1H-pyrrole-3-sulfonamide] | 0.5 to 5
N#Cc1ccc(NS(=O)(=O)c2c[nH]c(-c3ccccc3)c2)nc1 [Cpd 037, N-(5-cyano-2-pyridyl)-5-phenyl-1H-pyrrole-3-sulfonamide] | 5 to 50
N#Cc1ccc(F)c(-c2cc(S(=O)(=O)Nc3cc(F)c(OC(F)F)cc3F)c[nH]2)c1 [Cpd 650, 5-(5-cyano-2-fluorophenyl)-N-[4-(difluoromethoxy)-2,5-difluorophenyl]-1H-pyrrole-3-sulfonamide] | < 0.5
O=S(=O)(Nc1cc(F)c(C(F)(F)F)cc1F)c1c[nH]c(-c2cscn2)c1 [Cpd 302, N-[2,5-difluoro-4-(trifluoromethyl)phenyl]-5-thiazol-4-yl-1H-pyrrole-3-sulfonamide] | < 0.5
Cc1cc(NS(=O)(=O)c2c[nH]c(-c3ccccc3)c2)c(F)cc1C(F)(F)F [Cpd 338, N-[2-fluoro-5-methyl-4-(trifluoromethyl)phenyl]-5-phenyl-1H-pyrrole-3-sulfonamide] | 0.5 to 5
N#CCOc1cc(F)c(NS(=O)(=O)c2c[nH]c(-c3ccccc3)c2)cc1Cl [Cpd 576, N-[5-chloro-4-(cyanomethoxy)-2-fluorophenyl]-5-phenyl-1H-pyrrole-3-sulfonamide] | 0.5 to 5
